Here are results for 24 compounds from patent US20140221361A1, “C-19 MODIFIED TRITERPENOIDS WITH HIV MATURATION INHIBITORY ACTIVITY” (priority 2013, published 2014).

One experiment concerns recombinant NL4-3 virus (Renilla luciferase in nef, Gag P373S). Nature of the experiment: HIV cell culture assay (luciferase reporter, MT-2 cells). Format: cell-based, HIV-1. The following applies: MT-2 cells infected for 4-5 days with NLRluc recombinants; luciferase activity; serial dilutions of inhibitor. Here is the method:
MT-2 cells and 293T cells were obtained from the NIH AIDS Research and Reference Reagent Program. MT-2 cells were propagated in RPMI 1640 media supplemented with 10% heat inactivated fetal bovine serum, […]. The 293T cells were propagated in DMEM media supplemented with 10% heat inactivated fetal bovine serum (FBS), 100 units/ml penicillin G and 100 µg/ml streptomycin. The proviral DNA clone of NL4-3 was obtained from the NIH AIDS Research and Reference Reagent Program. A recombinant NL4-3 virus, in which a section of the nef gene from NL4-3 was replaced with the Renilla luciferase gene, was used as a reference virus. In addition, residue Gag P373 was converted to P373S. Briefly, the recombinant virus was prepared by transfection of the altered proviral clone of NL4-3. Transfections were performed in 293T cells using LipofectAMINE PLUS from Invitrogen (Carlsbad, Calif.), according to manufacturer's instruction. The virus was titered in MT-2 cells using luciferase enzyme activity as a marker. Luciferase was quantitated using the Dual Luciferase kit from Promega (Madison, Wis.), with modifications to the manufacturer's protocol. The diluted Passive Lysis solution was pre-mixed with the re-suspended Luciferase Assay Reagent and the re-suspended Stop & Glo Substrate (2:1:1 ratio). Fifty (50) μL of the mixture was added to each aspirated well on assay plates and luciferase activity was measured immediately on a Wallac TriLux (Perkin-Elmer). Antiviral activities of inhibitors toward the recombinant virus were quantified by measuring luciferase activity in cells infected for 4-5 days with NLRluc recombinants in the presence serial dilutions of the inhibitor.
(In general: A reporter such as luciferase makes a cellular process visible.)
As a reminder, the EC50 is the concentration giving half of the maximal effect. For the compound `CC(CC(=O)O)[C@@H]1CC[C@]2(C(=O)NCCN(C)C)CC[C@]3(C)[C@H](CC[C@@H]4[C@@]5(C)CC[C@H](c6ccc(C(=O)O)cc6)C(C)(C)[C@@H]5CC[C@]43C)[C@@H]12` (single isomer, unassigned) [Example 21], the concentration for a half-maximal effect (EC50) came to 40 nM. Still for that read-out and setting: to `CC(CO)[C@@H]1CC[C@]2(NCCN3CCS(=O)(=O)CC3)CC[C@]3(C)[C@H](CC[C@@H]4[C@@]5(C)CC=C(c6ccc(C(=O)O)c(F)c6)C(C)(C)[C@@H]5CC[C@]43C)[C@@H]12` (single isomer, unassigned) [Example A4] belongs 2.34 nM; to `CC(CO)[C@@H]1CC[C@]2(NCCN3CCS(=O)(=O)CC3)CC[C@]3(C)[C@H](CC[C@@H]4[C@@]5(C)CC=C(c6ccc(C(=O)O)c(F)c6)C(C)(C)[C@@H]5CC[C@]43C)[C@@H]12` (single isomer, unassigned) [Example A5], 6.89 nM; to `CC(CO)[C@@H]1CC[C@]2(NCCN3CCS(=O)(=O)CC3)CC[C@]3(C)[C@H](CC[C@@H]4[C@@]5(C)CC=C(c6ccc(C(=O)O)cc6)C(C)(C)[C@@H]5CC[C@]43C)[C@@H]12` (single isomer, unassigned) [Example B5], 1.15 nM. The same measure, in the same setting: the figure for `CC(CO)[C@@H]1CC[C@]2(NCCN3CCS(=O)(=O)CC3)CC[C@]3(C)[C@H](CC[C@@H]4[C@@]5(C)CC=C(c6ccc(C(=O)O)cc6)C(C)(C)[C@@H]5CC[C@]43C)[C@@H]12` (single isomer, unassigned) [Example B6] is 3.75 nM; for `CC(O)(CO)[C@@H]1CC[C@]2(NCCN3CCS(=O)(=O)CC3)CC[C@]3(C)[C@H](CC[C@@H]4[C@@]5(C)CC=C(c6ccc(C(=O)O)cc6)C(C)(C)[C@@H]5CC[C@]43C)[C@@H]12` (single isomer, unassigned) [Example B9] it is 2.15 nM.

Take `CC(O)(CO)[C@@H]1CC[C@]2(NCCN3CCS(=O)(=O)CC3)CC[C@]3(C)[C@H](CC[C@@H]4[C@@]5(C)CC=C(c6ccc(C(=O)O)cc6)C(C)(C)[C@@H]5CC[C@]43C)[C@@H]12` (single isomer, unassigned) [Example B10]: the EC50 was determined as 6.67 nM.

With `CC(O)[C@@H]1CC[C@]2(NCCN3CCS(=O)(=O)CC3)CC[C@]3(C)[C@H](CC[C@@H]4[C@@]5(C)CC=C(c6ccc(C(=O)O)cc6)C(C)(C)[C@@H]5CC[C@]43C)[C@@H]12` (single isomer, unassigned) [Example B12], the EC50 is 3.95 nM.

Take `CC([C@@H]1CC[C@]2(NCCN3CCS(=O)(=O)CC3)CC[C@]3(C)[C@H](CC[C@@H]4[C@@]5(C)CC=C(c6ccc(C(=O)O)cc6)C(C)(C)[C@@H]5CC[C@]43C)[C@@H]12)N(C)C` (single isomer, unassigned) [Example B39]: the EC50 is 4.33 nM. The same measure, in the same setting: to `CC([C@@H]1CC[C@]2(NCCN3CCS(=O)(=O)CC3)CC[C@]3(C)[C@H](CC[C@@H]4[C@@]5(C)CC=C(c6ccc(C(=O)O)cc6)C(C)(C)[C@@H]5CC[C@]43C)[C@@H]12)N(C)C` (single isomer, unassigned) [Example B40] belongs 40 nM.

Consider `CC(N)[C@@H]1CC[C@]2(NCCN3CCS(=O)(=O)CC3)CC[C@]3(C)[C@H](CC[C@@H]4[C@@]5(C)CC=C(c6ccc(C(=O)O)cc6)C(C)(C)[C@@H]5CC[C@]43C)[C@@H]12` (single isomer, unassigned) [Example B41], for which the half-maximal effective concentration (EC50) is 40 nM.

The same experiment, now with this note: Renilla, NL43, MT-2 cells infected for 4-5 days with NLRluc recombinants; luciferase activity; serial dilutions of inhibitor.
As for `CC(CC(=O)O)[C@@H]1CC[C@]2(C(=O)NCCN(C)C)CC[C@]3(C)[C@H](CC[C@@H]4[C@@]5(C)CC[C@H](c6ccc(C(=O)O)cc6)C(C)(C)[C@@H]5CC[C@]43C)[C@@H]12` (single isomer, unassigned) [Example 20], the 50% effective concentration (EC50) worked out at 30 nM. The same measure, in the same setting: to `COCC(C)(O)[C@@H]1CC[C@]2(NCCN3CCS(=O)(=O)CC3)CC[C@]3(C)[C@H](CC[C@@H]4[C@@]5(C)CC=C(c6ccc(C(=O)O)cc6)C(C)(C)[C@@H]5CC[C@]43C)[C@@H]12` (single isomer, unassigned) [Example B1] belongs 1.19 nM; to `COCC(C)(OC)[C@@H]1CC[C@]2(NCCN3CCS(=O)(=O)CC3)CC[C@]3(C)[C@H](CC[C@@H]4[C@@]5(C)CC=C(c6ccc(C(=O)O)cc6)C(C)(C)[C@@H]5CC[C@]43C)[C@@H]12` (single isomer, unassigned) [Example B2], 1.05 nM.

As for `CC(CF)[C@@H]1CC[C@]2(NCCN3CCS(=O)(=O)CC3)CC[C@]3(C)[C@H](CC[C@@H]4[C@@]5(C)CC=C(c6ccc(C(=O)O)cc6)C(C)(C)[C@@H]5CC[C@]43C)[C@@H]12` (single isomer, unassigned) [Example B8], the EC50 turned out to be 2.51 nM.

Consider `CC(O)[C@@H]1CC[C@]2(NCCN3CCS(=O)(=O)CC3)CC[C@]3(C)[C@H](CC[C@@H]4[C@@]5(C)CC=C(c6ccc(C(=O)O)cc6)C(C)(C)[C@@H]5CC[C@]43C)[C@@H]12` (single isomer, unassigned) [Example B11], for which the 50% effective concentration (EC50) stood at 2.18 nM. Still for that read-out and setting: the figure for `CC(=NO)[C@@H]1CC[C@]2(NCCN3CCS(=O)(=O)CC3)CC[C@]3(C)[C@H](CC[C@@H]4[C@@]5(C)CC=C(c6ccc(C(=O)O)cc6)C(C)(C)[C@@H]5CC[C@]43C)[C@@H]12` (single isomer, unassigned) [Example B14] is 3.75 nM; for `CC(CN1CCOCC1)[C@@H]1CC[C@]2(NCCN3CCS(=O)(=O)CC3)CC[C@]3(C)[C@H](CC[C@@H]4[C@@]5(C)CC=C(c6ccc(C(=O)O)cc6)C(C)(C)[C@@H]5CC[C@]43C)[C@@H]12` (single isomer, unassigned) [Example B16] it is 0.827 nM. `CC(CN1CCS(=O)(=O)CC1)[C@@H]1CC[C@]2(NCCN3CCS(=O)(=O)CC3)CC[C@]3(C)[C@H](CC[C@@H]4[C@@]5(C)CC=C(c6ccc(C(=O)O)cc6)C(C)(C)[C@@H]5CC[C@]43C)[C@@H]12` (single isomer, unassigned) [Example B18]: the 50% effective concentration (EC50) was found to be 1.57 nM. The same measure, in the same setting: the figure for `CC(N)[C@@H]1CC[C@]2(NCCN3CCS(=O)(=O)CC3)CC[C@]3(C)[C@H](CC[C@@H]4[C@@]5(C)CC=C(c6ccc(C(=O)O)cc6)C(C)(C)[C@@H]5CC[C@]43C)[C@@H]12` (single isomer, unassigned) [Example B19] is 30 nM; for `C=C(CNCCN1CCOCC1)[C@@H]1CC[C@]2(C(=O)O)CC[C@]3(C)[C@H](CC[C@@H]4[C@@]5(C)CC=C(c6ccc(C(=O)O)cc6)C(C)(C)[C@@H]5CC[C@]43C)[C@@H]12` [Example 1, (1R,3aS,5aR,5bR,7aR,11aS,11bR,13aR,13bS)-9-(4-carboxyphenyl)-5a,5b,8,8,11a-pentamethyl-1-(3-(2-morpholinoethylamino)prop-1-en-2-yl)-2,3,3a,4,5,5a,5b,6,7,7a,8,11,11a,11b,12,13,13a,13b-octadecahydro-1H-cyclopenta[a]chrysene-3a-carboxylic acid] it is 40 nM. The same measure, in the same setting: to `C=C(CNCCO)[C@@H]1CC[C@]2(C(=O)O)CC[C@]3(C)[C@H](CC[C@@H]4[C@@]5(C)CC=C(c6ccc(C(=O)O)cc6)C(C)(C)[C@@H]5CC[C@]43C)[C@@H]12` [Example 2, (1R,3aS,5aR,5bR,7aR,11aS,11bR,13aR,13bS)-9-(4-carboxyphenyl)-1-(3-(2-hydroxyethylamino)prop-1-en-2-yl)-5a,5b,8,8,11a-pentamethyl-2,3,3a,4,5,5a,5b,6,7,7a,8,11,11a,11b,12,13,13a,13b-octadecahydro-1H-cyclopenta[a]chrysene-3a-carboxylic acid] belongs 140 nM; to `C=C(CN(C)C)[C@@H]1CC[C@]2(C(=O)O)CC[C@]3(C)[C@H](CC[C@@H]4[C@@]5(C)CC=C(c6ccc(C(=O)O)cc6)C(C)(C)[C@@H]5CC[C@]43C)[C@@H]12` [Example 3, (1R,3aS,5aR,5bR,7aR,11aS,11bR,13aR,13bS)-9-(4-carboxyphenyl)-1-(3-(dimethylamino)prop-1-en-2-yl)-5a,5b,8,8,11a-pentamethyl-2,3,3a,4,5,5a,5b,6,7,7a,8,11,11a,11b,12,13,13a,13b-octadecahydro-1H-cyclopenta[a]chrysene-3a-carboxylic acid], 100 nM. In the case of `C=C(CN(C)CCN(C)C)[C@@H]1CC[C@]2(C(=O)O)CC[C@]3(C)[C@H](CC[C@@H]4[C@@]5(C)CC=C(c6ccc(C(=O)O)cc6)C(C)(C)[C@@H]5CC[C@]43C)[C@@H]12` [Example 4, (1R,3aS,5aR,5bR,7aR,11aS,11bR,13aR,13bS)-9-(4-carboxyphenyl)-1-(3-((2-(dimethylamino)ethyl)(methyl)amino)prop-1-en-2-yl)-5a,5b,8,8,11a-pentamethyl-2,3,3a,4,5,5a,5b,6,7,7a,8,11,11a,11b,12,13,13a,13b-octadecahydro-1H-cyclopenta[a]chrysene-3a-carboxylic acid], the EC50 was 1.42 nM.
